The source of these data is PubChem BioAssay (NCI).

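Following 48 hours of exposure in 96-well plates, responses at five concentrations were used to interpolate endpoints linearly. At the GI50, growth is halved. The concentration for full growth arrest is given as TGI.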 Bounds are passed on as bounds.

Test systems include 786-0 renal; CCRF-CEM leukemia; HS 578T breast; KM12 colon; M14 melanoma; MALME-3M melanoma; MCF7 breast; MDA-MB-435; OVCAR-8 ovarian; RXF 393 renal; SF-268 CNS; SK-MEL-5 melanoma; T-47D breast; UACC-257 melanoma; UO-31 renal.
Holding throughout (assay): NCI anticancer screen, dose series, 48 h

Consider `CCN(CC)/C(Sc1ccccc1)=C(\C(Cl)=C(Cl)Cl)[N+](=O)[O-]`, for which the TGI with 786-0 renal was 37.5 µM; in the assay on CCRF-CEM leukemia, 20.9 µM; in the assay on HS 578T breast, 81 µM; in the assay with KM12 colon, 36.3 µM; in the assay with M14 melanoma, 37.5 µM; in the assay on MALME-3M melanoma, 39.9 µM. The TGI in the assay on MCF7 breast was 30.2 µM; with MDA-MB-435 it was 27.7 µM; in the assay on OVCAR-8 ovarian it was 35.6 µM; in the assay on RXF 393 renal, 36.8 µM; in the assay with SF-268 CNS it was 58.3 µM; in the assay with SK-MEL-5 melanoma it was 29 µM. Moreover, the TGI with T-47D breast worked out at 42 µM; with UACC-257 melanoma, 44.5 µM; with UO-31 renal, 28.9 µM.
For `COc1ccc(C(=O)c2sc(Nc3ccc(Cl)cc3)nc2N)cc1`, the TGI was 28.6 µM in the assay on 786-0 renal; 58.1 µM in the assay with CCRF-CEM leukemia; 47.4 µM in the assay on HS 578T breast; above 100 µM in the assay on KM12 colon; above 100 µM with M14 melanoma; above 59.4 µM in the assay with MALME-3M melanoma. Further, the TGI with MCF7 breast is above 100 µM; in the assay on MDA-MB-435, 7.35 µM; in the assay with OVCAR-8 ovarian, above 100 µM; with RXF 393 renal, above 54 µM; in the assay with SF-268 CNS it was 43.3 µM; in the assay on SK-MEL-5 melanoma it was above 100 µM. The TGI with T-47D breast was above 100 µM; in the assay with UACC-257 melanoma, above 90.2 µM; in the assay on UO-31 renal, 97.7 µM.
As to `Brc1cc(CCOC2CCCCO2)c(-c2sccc2CCOC2CCCCO2)s1` (stereo unspecified), the TGI is above 100 µM with 786-0 renal; above 82.5 µM in the assay with CCRF-CEM leukemia; above 95.7 µM in the assay on HS 578T breast; above 100 µM with KM12 colon; above 100 µM in the assay on M14 melanoma; 87.7 µM in the assay on MALME-3M melanoma. Besides, the TGI in the assay on MCF7 breast was above 80 µM; in the assay with MDA-MB-435 it was above 100 µM; in the assay with OVCAR-8 ovarian, above 100 µM; in the assay with RXF 393 renal, 3 µM; in the assay with SF-268 CNS it was above 100 µM; with SK-MEL-5 melanoma, above 100 µM. Moreover, the TGI was above 100 µM in the assay on T-47D breast, above 100 µM with UACC-257 melanoma and above 42.1 µM in the assay on UO-31 renal.
With `O=C(c1cccs1)N(C(=S)OC12CC3CC(CC(C3)C1)C2)c1ccccc1`, the TGI was above 100 µM with 786-0 renal; 52.1 µM in the assay on CCRF-CEM leukemia; above 100 µM with HS 578T breast; above 100 µM in the assay with KM12 colon; 43 µM in the assay with M14 melanoma; above 100 µM with MALME-3M melanoma. Further, the TGI was above 100 µM in the assay on MCF7 breast; above 100 µM in the assay on MDA-MB-435; above 100 µM in the assay on OVCAR-8 ovarian; above 100 µM with RXF 393 renal; above 100 µM with SF-268 CNS; 55.8 µM in the assay with SK-MEL-5 melanoma. The results for the TGI in the assay with T-47D breast, with UACC-257 melanoma and in the assay with UO-31 renal were above 100 µM, above 100 µM and 70.3 µM, respectively.
For `CCOC(=O)c1cn2c(n1)sc1c(Cl)c(Cl)ccc12`, the TGI in the assay with 786-0 renal was 31.2 µM; in the assay on CCRF-CEM leukemia, above 100 µM; in the assay with HS 578T breast it was 28.6 µM; in the assay on KM12 colon, above 58.2 µM; with M14 melanoma, above 96.3 µM; in the assay with MALME-3M melanoma, 8.92 µM. In addition, the TGI in the assay on MCF7 breast was above 100 µM; in the assay with MDA-MB-435 it was 12.6 µM; in the assay with OVCAR-8 ovarian, above 66 µM; in the assay with RXF 393 renal, above 100 µM; in the assay on SF-268 CNS, above 54.9 µM; in the assay with SK-MEL-5 melanoma it was 65.7 µM. Further, the values for the TGI in the assay with T-47D breast, in the assay with UACC-257 melanoma and in the assay on UO-31 renal were above 90.5 µM, above 100 µM and above 100 µM, respectively.
For the compound `CC(=O)O[C@H]1[C@@H]2OC(=O)[C@@](O)(CC3CCCO3)[C@@H]2CC(=O)[C@](C)(O)CC/C=C(\C)CCC[C@@H]1C` (stereo partly specified), the TGI with 786-0 renal was above 100 µM; with CCRF-CEM leukemia, 68.4 µM; in the assay on HS 578T breast, above 100 µM; in the assay with KM12 colon it was above 100 µM; in the assay on M14 melanoma it was above 100 µM; with MALME-3M melanoma, above 100 µM. For the same compound, the TGI with MCF7 breast is above 100 µM; with MDA-MB-435, above 100 µM; with OVCAR-8 ovarian, above 100 µM; in the assay with RXF 393 renal, 35.9 µM; with SF-268 CNS, above 100 µM; in the assay on SK-MEL-5 melanoma, above 100 µM. Besides, the TGI in the assay with T-47D breast, in the assay with UACC-257 melanoma and with UO-31 renal was above 100 µM throughout.
With `COc1cc2c(cc1OC)C(=O)/C(=C/c1ccc(Cl)cc1)CC2`, the TGI in the assay on 786-0 renal, in the assay on CCRF-CEM leukemia, in the assay on HS 578T breast, with KM12 colon, in the assay with M14 melanoma and with MALME-3M melanoma was above 10 µM in each case. In addition, the TGI in the assay on MCF7 breast, in the assay on MDA-MB-435, with OVCAR-8 ovarian, in the assay on RXF 393 renal, in the assay on SF-268 CNS and in the assay on SK-MEL-5 melanoma was above 10 µM each time. The TGI in the assay with T-47D breast, with UACC-257 melanoma and in the assay on UO-31 renal was above 10 µM in each case.
With `CCn1c(SCC(=O)NNC(=S)Nc2ccc([N+](=O)[O-])cc2)nc2ccccc2c1=O`, the TGI in the assay on 786-0 renal, in the assay on CCRF-CEM leukemia, with HS 578T breast, in the assay on KM12 colon, in the assay on M14 melanoma and with MALME-3M melanoma was above 100 µM in each case. Further, the TGI with MCF7 breast, in the assay with MDA-MB-435, with OVCAR-8 ovarian, in the assay with RXF 393 renal, in the assay on SF-268 CNS and with SK-MEL-5 melanoma was above 100 µM each time. In addition, the TGI in the assay with T-47D breast, with UACC-257 melanoma and in the assay on UO-31 renal was above 100 µM each time.
In the case of `CCCNC(=O)CCC(C)C1CCC2C3C(C[C@H](OC(C)=O)[C@]12C)[C@@]1(C)CCC2(C[C@H]1C[C@H]3OC(C)=O)OOC1(CC[C@]3(C)C4C[C@H](OC(C)=O)[C@]5(C)C(C(C)CCC(=O)NCCC)CCC5C4[C@H](OC(C)=O)C[C@@H]3C1)OO2` (stereo partly specified), the TGI in the assay with 786-0 renal is above 100 µM; in the assay on CCRF-CEM leukemia, above 100 µM; in the assay with HS 578T breast, 98.2 µM; in the assay with KM12 colon, above 100 µM; with M14 melanoma it was above 100 µM; with MALME-3M melanoma, above 100 µM. Further, the TGI in the assay with MCF7 breast was above 100 µM; with MDA-MB-435, above 100 µM; with OVCAR-8 ovarian, above 93.9 µM; in the assay on RXF 393 renal, above 87.1 µM; in the assay on SF-268 CNS it was above 100 µM; with SK-MEL-5 melanoma it was above 100 µM. For the same compound, the TGI was above 100 µM in the assay on T-47D breast, above 100 µM in the assay on UACC-257 melanoma and 3.31 µM in the assay on UO-31 renal. In addition, in the assay on T-47D breast, the GI50 is above 100 µM.
